{"source": "ChEMBL document CHEMBL5653631", "about": "“A Potent and Selective ULK1 Inhibitor Suppresses Autophagy and Sensitizes Cancer Cells to Nutrient Stress” (iScience, 2018)", "key": {"[1]": {"biological_target": "Casein kinase I isoform gamma-1 (Homo sapiens) (UniProt Q9HCP0)", "sequence (Q9HCP0 whole entry, looked up, canonical isoform)": "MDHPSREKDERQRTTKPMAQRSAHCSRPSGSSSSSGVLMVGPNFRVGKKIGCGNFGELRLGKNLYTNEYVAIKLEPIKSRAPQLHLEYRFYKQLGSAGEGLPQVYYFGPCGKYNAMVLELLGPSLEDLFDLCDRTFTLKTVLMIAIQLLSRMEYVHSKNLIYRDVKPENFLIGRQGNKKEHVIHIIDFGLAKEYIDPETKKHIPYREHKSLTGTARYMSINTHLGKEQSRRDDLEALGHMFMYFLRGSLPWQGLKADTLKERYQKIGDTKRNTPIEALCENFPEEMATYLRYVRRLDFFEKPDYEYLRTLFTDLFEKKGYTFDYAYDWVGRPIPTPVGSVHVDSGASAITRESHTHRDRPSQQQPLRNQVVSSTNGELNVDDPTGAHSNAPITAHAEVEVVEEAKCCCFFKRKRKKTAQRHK", "experiment": "Inhibition of human recombinant CK1g1 at 500 nM in presence of ATP by radiometric assay relative to control"}, "[2]": {"biological_target": "T1, Serine/threonine-protein kinase 17B (Homo sapiens) (UniProt O94768)", "T1 sequence (whole entry)": "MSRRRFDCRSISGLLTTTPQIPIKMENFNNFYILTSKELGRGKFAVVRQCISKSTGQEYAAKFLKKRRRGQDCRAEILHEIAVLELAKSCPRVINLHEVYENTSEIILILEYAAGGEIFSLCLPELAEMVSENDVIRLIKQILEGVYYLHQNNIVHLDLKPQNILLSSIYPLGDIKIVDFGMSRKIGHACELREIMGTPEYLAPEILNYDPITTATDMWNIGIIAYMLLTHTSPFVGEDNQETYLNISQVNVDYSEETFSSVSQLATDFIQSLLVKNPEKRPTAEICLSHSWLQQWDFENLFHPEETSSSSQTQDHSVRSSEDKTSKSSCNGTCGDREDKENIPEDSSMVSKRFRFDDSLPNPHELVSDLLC", "experiment": "Inhibition of human recombinant DRAK2 at 500 nM in presence of ATP by radiometric assay relative to control"}, "[3]": {"biological_target": "T2, Testis-specific serine/threonine-protein kinase 1 (Homo sapiens) (UniProt Q9BXA7)", "T2 sequence (whole entry)": "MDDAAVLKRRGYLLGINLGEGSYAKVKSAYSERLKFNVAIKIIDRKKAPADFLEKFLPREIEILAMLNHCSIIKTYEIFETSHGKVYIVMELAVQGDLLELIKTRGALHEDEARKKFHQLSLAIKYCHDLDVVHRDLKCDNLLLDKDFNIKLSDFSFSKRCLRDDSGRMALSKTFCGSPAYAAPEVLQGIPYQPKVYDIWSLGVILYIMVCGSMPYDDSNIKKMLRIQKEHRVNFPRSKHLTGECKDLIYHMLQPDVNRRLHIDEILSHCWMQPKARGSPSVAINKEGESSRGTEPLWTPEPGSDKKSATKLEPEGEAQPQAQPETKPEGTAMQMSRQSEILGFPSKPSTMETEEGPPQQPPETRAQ", "experiment": "Inhibition of human recombinant TSSK1 at 500 nM in presence of ATP by radiometric assay relative to control"}, "[4]": {"biological_target": "Fibroblast growth factor receptor 3 (Homo sapiens) (UniProt P22607)", "sequence (P22607 23-806 limits assumed)": "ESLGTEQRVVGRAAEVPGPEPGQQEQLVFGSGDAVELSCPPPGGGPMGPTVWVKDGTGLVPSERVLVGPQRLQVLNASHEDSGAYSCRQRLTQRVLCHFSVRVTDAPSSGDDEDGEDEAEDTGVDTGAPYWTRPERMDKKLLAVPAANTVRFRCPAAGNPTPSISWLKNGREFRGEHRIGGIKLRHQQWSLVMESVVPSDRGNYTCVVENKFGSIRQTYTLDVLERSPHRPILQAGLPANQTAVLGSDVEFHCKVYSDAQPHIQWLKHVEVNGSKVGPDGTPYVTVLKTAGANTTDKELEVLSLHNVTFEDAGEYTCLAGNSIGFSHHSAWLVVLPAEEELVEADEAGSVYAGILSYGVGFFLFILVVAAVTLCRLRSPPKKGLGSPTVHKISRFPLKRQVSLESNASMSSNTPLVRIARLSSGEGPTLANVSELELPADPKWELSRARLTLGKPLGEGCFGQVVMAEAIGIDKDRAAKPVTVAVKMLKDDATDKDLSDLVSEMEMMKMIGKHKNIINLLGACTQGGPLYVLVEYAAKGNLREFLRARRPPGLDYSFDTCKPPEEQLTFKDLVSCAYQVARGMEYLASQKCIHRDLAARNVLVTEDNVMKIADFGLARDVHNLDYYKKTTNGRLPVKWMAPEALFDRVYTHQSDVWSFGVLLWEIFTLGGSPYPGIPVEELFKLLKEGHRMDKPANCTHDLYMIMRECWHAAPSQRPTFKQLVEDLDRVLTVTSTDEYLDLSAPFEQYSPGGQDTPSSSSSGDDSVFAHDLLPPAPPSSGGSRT", "experiment": "Inhibition of human recombinant FGFR3 at 15 nM in presence of ATP by radiometric assay relative to control"}, "[5]": {"biological_target": "ALK tyrosine kinase receptor (Homo sapiens) (UniProt Q9UM73)", "sequence (Q9UM73 19-1620 limits assumed)": "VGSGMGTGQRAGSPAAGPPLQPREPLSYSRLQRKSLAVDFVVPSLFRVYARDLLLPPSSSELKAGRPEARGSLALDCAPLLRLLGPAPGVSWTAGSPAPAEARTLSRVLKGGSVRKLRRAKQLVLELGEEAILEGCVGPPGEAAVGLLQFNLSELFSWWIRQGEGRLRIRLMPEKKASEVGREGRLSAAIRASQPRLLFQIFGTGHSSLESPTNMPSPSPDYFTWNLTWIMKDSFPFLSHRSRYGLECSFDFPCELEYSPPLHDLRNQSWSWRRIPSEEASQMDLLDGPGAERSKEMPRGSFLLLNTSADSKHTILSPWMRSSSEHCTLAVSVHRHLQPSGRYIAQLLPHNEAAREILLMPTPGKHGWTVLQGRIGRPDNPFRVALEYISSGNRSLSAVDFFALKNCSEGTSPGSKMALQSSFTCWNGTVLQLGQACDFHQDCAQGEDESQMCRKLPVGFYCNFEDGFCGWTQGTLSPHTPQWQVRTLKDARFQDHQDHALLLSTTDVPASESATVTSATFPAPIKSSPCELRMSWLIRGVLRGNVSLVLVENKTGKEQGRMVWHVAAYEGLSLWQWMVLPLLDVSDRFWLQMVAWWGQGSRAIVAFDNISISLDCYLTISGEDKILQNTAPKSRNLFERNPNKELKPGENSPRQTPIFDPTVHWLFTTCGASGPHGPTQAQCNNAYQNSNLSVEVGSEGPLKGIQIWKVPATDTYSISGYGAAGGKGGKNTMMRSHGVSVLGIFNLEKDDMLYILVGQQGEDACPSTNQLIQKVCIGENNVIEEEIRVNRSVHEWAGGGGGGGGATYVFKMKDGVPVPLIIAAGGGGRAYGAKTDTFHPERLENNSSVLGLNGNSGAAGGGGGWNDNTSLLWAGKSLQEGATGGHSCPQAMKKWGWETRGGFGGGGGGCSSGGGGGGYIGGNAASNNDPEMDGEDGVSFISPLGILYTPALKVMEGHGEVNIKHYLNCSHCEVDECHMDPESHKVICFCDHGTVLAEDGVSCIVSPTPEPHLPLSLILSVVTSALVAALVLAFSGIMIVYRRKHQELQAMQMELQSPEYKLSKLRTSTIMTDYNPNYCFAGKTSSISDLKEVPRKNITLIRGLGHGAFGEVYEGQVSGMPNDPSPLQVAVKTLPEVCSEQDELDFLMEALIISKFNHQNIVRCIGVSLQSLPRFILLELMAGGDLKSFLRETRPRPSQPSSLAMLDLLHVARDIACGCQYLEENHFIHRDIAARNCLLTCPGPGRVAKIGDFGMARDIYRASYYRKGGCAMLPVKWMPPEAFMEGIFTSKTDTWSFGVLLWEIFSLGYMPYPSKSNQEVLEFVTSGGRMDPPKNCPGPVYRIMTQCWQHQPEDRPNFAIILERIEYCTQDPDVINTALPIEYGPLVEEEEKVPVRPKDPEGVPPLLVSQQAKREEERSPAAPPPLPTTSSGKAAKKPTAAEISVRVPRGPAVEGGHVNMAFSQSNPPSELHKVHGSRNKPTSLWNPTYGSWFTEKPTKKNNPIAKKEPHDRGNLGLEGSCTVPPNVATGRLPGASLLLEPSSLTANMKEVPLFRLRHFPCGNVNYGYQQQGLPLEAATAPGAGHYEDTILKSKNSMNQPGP", "experiment": "Inhibition of human recombinant ALK at 15 nM related to control ULK1"}, "[6]": {"biological_target": "Fibroblast growth factor receptor 3 (Homo sapiens) (UniProt P22607)", "experiment": "Inhibition of human recombinant FGFR3 at 40 nM in presence of ATP by radiometric assay relative to control"}, "[7]": {"biological_target": "T3, Serine/threonine-protein kinase TBK1 (Homo sapiens) (UniProt Q9UHD2)", "T3 sequence (whole entry)": "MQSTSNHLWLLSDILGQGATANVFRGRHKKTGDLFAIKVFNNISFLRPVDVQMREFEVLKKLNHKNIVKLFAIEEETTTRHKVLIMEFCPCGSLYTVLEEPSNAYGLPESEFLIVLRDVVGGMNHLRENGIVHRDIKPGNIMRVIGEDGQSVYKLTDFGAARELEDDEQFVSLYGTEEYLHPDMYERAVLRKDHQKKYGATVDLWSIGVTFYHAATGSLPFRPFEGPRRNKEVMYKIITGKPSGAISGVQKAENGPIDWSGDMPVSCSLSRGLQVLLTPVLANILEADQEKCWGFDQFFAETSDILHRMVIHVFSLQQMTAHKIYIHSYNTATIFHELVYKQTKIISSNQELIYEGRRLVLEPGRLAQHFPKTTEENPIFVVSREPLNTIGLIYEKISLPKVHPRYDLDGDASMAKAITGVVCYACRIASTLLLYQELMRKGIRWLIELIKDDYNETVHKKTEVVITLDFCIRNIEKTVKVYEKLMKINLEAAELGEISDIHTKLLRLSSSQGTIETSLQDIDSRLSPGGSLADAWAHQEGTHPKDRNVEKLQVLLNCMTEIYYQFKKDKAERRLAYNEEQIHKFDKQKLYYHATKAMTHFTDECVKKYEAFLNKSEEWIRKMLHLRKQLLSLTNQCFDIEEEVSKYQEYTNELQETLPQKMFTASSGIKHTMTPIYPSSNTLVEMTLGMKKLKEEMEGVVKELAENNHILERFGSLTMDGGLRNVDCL", "experiment": "Inhibition of human recombinant TBK1 at 40 nM in presence of ATP by radiometric assay relative to control"}, "[8]": {"biological_target": "Tyrosine-protein kinase JAK1 (Homo sapiens) (UniProt P23458)", "sequence (P23458 whole entry)": "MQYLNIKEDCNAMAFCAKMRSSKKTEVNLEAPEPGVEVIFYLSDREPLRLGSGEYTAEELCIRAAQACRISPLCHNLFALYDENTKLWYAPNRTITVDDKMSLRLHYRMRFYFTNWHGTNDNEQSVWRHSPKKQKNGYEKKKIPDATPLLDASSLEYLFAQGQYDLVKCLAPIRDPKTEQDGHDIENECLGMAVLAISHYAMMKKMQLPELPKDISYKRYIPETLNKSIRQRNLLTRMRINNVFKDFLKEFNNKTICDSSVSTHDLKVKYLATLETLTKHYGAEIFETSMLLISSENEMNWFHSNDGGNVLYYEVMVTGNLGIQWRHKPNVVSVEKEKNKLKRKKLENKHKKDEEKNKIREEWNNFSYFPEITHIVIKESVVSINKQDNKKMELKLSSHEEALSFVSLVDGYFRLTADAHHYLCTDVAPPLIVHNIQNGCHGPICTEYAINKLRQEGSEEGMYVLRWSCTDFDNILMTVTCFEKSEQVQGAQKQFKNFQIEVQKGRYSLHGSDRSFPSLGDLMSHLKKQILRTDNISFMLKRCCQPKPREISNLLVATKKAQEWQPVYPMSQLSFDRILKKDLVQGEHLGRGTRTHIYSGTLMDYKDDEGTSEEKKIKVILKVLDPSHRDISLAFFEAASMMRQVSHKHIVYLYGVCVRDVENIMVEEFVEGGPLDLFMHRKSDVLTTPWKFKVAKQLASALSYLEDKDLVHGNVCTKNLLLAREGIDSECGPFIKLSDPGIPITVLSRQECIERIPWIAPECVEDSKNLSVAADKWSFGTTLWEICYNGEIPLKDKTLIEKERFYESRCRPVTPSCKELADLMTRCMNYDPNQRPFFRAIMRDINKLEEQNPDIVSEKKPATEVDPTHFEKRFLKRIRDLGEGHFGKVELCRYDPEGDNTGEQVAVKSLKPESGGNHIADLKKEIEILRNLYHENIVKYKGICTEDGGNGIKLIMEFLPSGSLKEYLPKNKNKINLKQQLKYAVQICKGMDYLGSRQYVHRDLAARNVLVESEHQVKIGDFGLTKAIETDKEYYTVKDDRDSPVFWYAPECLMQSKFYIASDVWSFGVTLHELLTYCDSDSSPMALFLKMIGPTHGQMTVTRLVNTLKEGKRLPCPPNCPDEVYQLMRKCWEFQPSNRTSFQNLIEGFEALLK", "experiment": "Inhibition of human recombinant JAK1 at 40 nM related to control ULK1"}, "[9]": {"biological_target": "T4, Tyrosine-protein kinase Mer (Homo sapiens) (UniProt Q12866)", "T4 sequence (whole entry)": "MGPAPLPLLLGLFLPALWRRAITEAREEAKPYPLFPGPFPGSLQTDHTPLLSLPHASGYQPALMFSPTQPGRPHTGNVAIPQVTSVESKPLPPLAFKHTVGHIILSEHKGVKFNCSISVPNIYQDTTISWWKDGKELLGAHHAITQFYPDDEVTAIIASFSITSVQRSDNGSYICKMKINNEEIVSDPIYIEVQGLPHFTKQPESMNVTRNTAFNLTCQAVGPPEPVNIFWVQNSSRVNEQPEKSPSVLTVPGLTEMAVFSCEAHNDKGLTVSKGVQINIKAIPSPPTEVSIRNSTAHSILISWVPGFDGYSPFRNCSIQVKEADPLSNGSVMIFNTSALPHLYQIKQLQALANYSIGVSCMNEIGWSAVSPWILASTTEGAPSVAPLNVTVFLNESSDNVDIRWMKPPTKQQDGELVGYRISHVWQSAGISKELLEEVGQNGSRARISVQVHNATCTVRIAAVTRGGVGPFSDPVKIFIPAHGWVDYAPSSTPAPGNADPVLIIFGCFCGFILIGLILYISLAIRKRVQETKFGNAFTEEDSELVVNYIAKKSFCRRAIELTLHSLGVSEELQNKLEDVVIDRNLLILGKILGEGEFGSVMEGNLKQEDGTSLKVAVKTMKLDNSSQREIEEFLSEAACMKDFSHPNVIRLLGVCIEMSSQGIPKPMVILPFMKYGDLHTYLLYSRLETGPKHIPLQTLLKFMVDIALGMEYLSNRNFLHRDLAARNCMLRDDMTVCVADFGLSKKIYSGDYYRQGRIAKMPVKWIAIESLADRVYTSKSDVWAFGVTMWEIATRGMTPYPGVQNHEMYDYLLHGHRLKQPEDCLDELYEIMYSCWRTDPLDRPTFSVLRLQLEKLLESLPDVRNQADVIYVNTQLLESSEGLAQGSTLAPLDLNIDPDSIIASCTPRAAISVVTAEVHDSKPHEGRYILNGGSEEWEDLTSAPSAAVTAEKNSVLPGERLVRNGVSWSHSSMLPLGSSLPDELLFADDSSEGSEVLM", "experiment": "Inhibition of human recombinant MER at 40 nM related to control ULK1"}}}
{"smiles": "CNC(=O)c1ccccc1Oc1nc(Nc2cc(OC)c(OC)c(OC)c2)ncc1Br", "values": [{"measurement": "inhibition", "setting": "[1]", "result": 0, "unit": "%"}, {"measurement": "inhibition", "setting": "[2]", "result": 6, "unit": "%"}, {"measurement": "inhibition", "setting": "[3]", "result": 0, "unit": "%"}]}
{"smiles": "CC(C)[C@H](NC(=O)c1cc(-c2cnn3cc(-c4ccc(OCCN5CCCCC5)cc4)cnc23)cs1)C(F)(F)F", "values": [{"measurement": "inhibition", "setting": "[4]", "result": 0, "unit": "%"}, {"measurement": "fold change (FC)", "setting": "[5]", "result": 0}]}
{"smiles": "O=C(N[C@@H](C1CC1)C(F)(F)F)c1cc(-c2cnn3cc(-c4ccc(F)cc4)cnc23)cs1", "values": [{"measurement": "inhibition", "setting": "[6]", "result": 0, "unit": "%"}, {"measurement": "inhibition", "setting": "[7]", "result": 26, "unit": "%"}, {"measurement": "fold change (FC)", "setting": "[8]", "result": 0}, {"measurement": "fold change (FC)", "setting": "[9]", "result": 0.01}]}
